Laboratory results as given in US9226928B2, “Spirocyclic isoxazoline parasiticidal combinations” (Zoetis Services LLC, priority 2012, dated 2016).
Where two headings read alike, the source gives them in different places.

What was measured:
[1] = system: Dirofilaria immitis microfilariae (MF), Michigan strain; assay: In vitro motility assay, D. immitis microfilariae
Procedure: Antiparasitic compounds were dissolved in DMSO and were spotted into the well of a 384 well microtiter plate. Nematodes in a buffered solution were added to the plates and motility measured at 96 hours for the H. contortus strains and 72 hours for D. immitis. […] MED was subjective based on visual assessment using light microscopy and was the lowest dose to cause a significant decrease in motility. Concentrations at ½ log below the MED were used alone and in combination and were read on the LemnaTec Scanalyzer to provide a quantitative percent motility compared to the negative control.
Material and method for the Dirofilaria immitis in vitro assay: Dirofilaria immitis MF were purified from microfilaremic canine blood by erythrocyte lysis and filtration and maintained in a cell culture media fortified with fetal bovine serum and antibiotics. […] The motility assessment was performed after 72 hours of incubation at 37° C. and 5% CO2 on a LemnaTec Scanalyzer which determined motility of the MF by image analysis.

[2] = system: Haemonchus contortus L3 susceptible strain; assay: In vitro motility assay, H. contortus L3 susceptible strain; format: cell-based
[3] = system: D. immitis (L3 inoculation, adult worm recovery); assay: Prevention of heartworm disease in dogs; settings: in vivo, po
[4] = system: tick (O. turicata, Zoetis strain); assay: In-vitro tick feeding assay; format: cell-based, Ornithodoros turicata; settings: for MED (lowest dose to cause paralysis ≧50%): at 24, 28, and 72 hours post feeding
C. felis fleas = assay: Efficacy against fleas in dogs; settings: all time points (Days 1-35); same groups
Procedure: Each dog was infested with approximately 100 unfed viable adult C. felis fleas on Days −1, 6, 13, 20, 27, and 34. Efficacy was assessed by comb counts of live fleas on Days 1, 7, 14, 21, 28, and 35. Efficacy was determined as the % reduction in geometric mean live flea counts versus placebo.

flea (C. felis) = assay: In-vitro flea feeding assay; format: cell-based, Ctenocephalides felis; settings: for lowest MED alone (lowest dose to cause mortality ≧50%) / control MED dose levels alone (triple combination assay): compound alone; for lowest MED alone (lowest dose to cause mortality ≧50%): 24 hours blood feeding; for control MED dose levels alone (triple combination assay): controls of the triple combination assay
[5] = Combination pharmacokinetics in fed dogs; settings: dog, in vivo, sampling to 28 days
[6] = minimum efficacious dose, visual motility assessment, 72 hours
[7] = vs untreated control, 72 hours, LemnaTec, moxidectin 3.3 μM, pyrantel 33 μM, Compound A 10 μM, alone or combined (triple row prints 100 μM Compound A)
[8] = minimum efficacious dose, visual motility assessment, 96 hours
[9] = vs untreated control, 96 hours, LemnaTec, moxidectin 0.1 μM, pyrantel 10 μM, Compound A 100 μM, alone or combined

Compound | % Motility [1] | D. immitis MED [1] | % Motility [2] | H. contortus L3 susceptible MED [2] | geometric mean adult D. immitis worm count [3] | MED (lowest dose to cause paralysis ≧50%) [4] | Percentage reductions in geometric and arithmetic mean live flea counts compared with placebo (C. felis fleas) | lowest MED alone (lowest dose to cause mortality ≧50%) (flea (C. felis)) | control MED dose levels alone (triple combination assay) (flea (C. felis)) | AUC ([5]; dosed alone: Compound A 2 mg/kg, moxidectin 0.25 μg/kg, pyrantel pamoate 5 mg/kg) | AUC ([5]; the three compounds dosed simultaneously) | D. immitis MED [1, 6] | % Motility [1, 7] | H. contortus L3 susceptible MED [2, 8] | % Motility [2, 9] | effect on ticks ([4]; at a rate of 3 or 30 ug/mL) | effect on fleas (flea (C. felis); highest dose tested (300 mM))
CS(=O)(=O)CC(=O)N1CC2(C1)OCc1cc(C3=NO[C@@](c4cc(Cl)c(F)c(Cl)c4)(C(F)(F)F)C3)ccc12 [Compound A, (S)-1-(5′-(5-(3,5-dichloro-4-fluorophenyl)-5-(trifluoromethyl)-4,5-dihydroisoxazol-3-yl)-3′H-spiro[azetidine-3,1′-isobenzofuran]-1-yl)-2-(methylsulfonyl)ethanone] | 50.9% | 33 µM | 76.0% | >100 µM | 30.3 worms recovered from each dog | 0.01 µg/mL | 100% | 0.0001 mM | 0.3 mM | 202 µg·h/mL | 206 µg·h/mL | – | – | – | – | – | –
CO/N=C1\C[C@]2(C[C@@H]3C[C@@H](C/C=C(\C)C[C@@H](C)/C=C/C=C4\CO[C@@H]5[C@H](O)C(C)=C[C@@H](C(=O)O3)[C@]45O)O2)O[C@H](/C(C)=C/C(C)C)[C@H]1C [Moxidectin, moxidectin] | – | – | – | – | – | 0.03 µg/mL | – | 0.01 mM | 10 mM | – | – | 10 µM | 62.0% | 0.3 µM | 95.0% | – | –
CN1CCCN=C1/C=C/c1cccs1 [Pyrantel, pyrantel pamoate] | – | – | – | – | – | – | – | – | > 300 mM | – | – | 100 µM | 77.8% | 33 µM | 95.6% | no effect | no effect
